Entries after “also recorded” stand apart in the source; their conditions may differ. Like-named read-outs stand apart in the source and are kept apart here.
What was measured:
OASS (StOASS and HiOASS) = format: biochemical; conditions: purified enzymes; read-out: Km,OAS
OASS [1] = target: OASS; set-up: method as in PMID 10995767; conditions: from Kext, single-wavelength stopped flow; cited from earlier work
[2] = target: T1, StOASS (O-acetylserine sulfhydrylase) (Salmonella typhimurium, UniProt P0A1E3)
Experimental: (§1) Isothermal titration calorimetry (ITC) experiments were performed using a Nano-ITC (TA-Instruments). OASS was dialyzed at 25°C in 20 mM Tris buffer (pH 8.0) and 50 mM NaCl. Buffer solutions were degassed at room temperature prior to use. […] The heat of dilution for each injection was determined using buffer in the cell. Data obtained from the titration of ligands with OASS were analyzed using either a two-sites binding model (eqn 2)(2) [drawing 2]
(§2) Qi^tot is total heat after the i^th injection, V0 is the volume of calorimetric cell, K1 and K2 are the observed equilibrium constants for each site, and ΔH1 and ΔH2 are the corresponding enthalpy changes. Estimates of Kobs and ΔH were obtained by fitting the experimental data to the model and the best-fit parameters were selected based on the lowest Chi-squared values.

[3] = target: HiOASS (O-acetylserine sulfhydrylase) (Haemophilus influenzae, UniProt P45040)
Experimental: as §1, §2

OASS [4] = target: OASS; set-up: method as in PMID 7547955; conditions: earlier study; read-out: Kd, reported value; cited from earlier work
[5] = target: T1, StOASS (O-acetylserine sulfhydrylase); assay: PLP fluorescence titration of ligands with StOASS; format: binding; set-up: His tag (N); made in house; host or cells: E. coli BL21(DE3), pET28a(+); conditions: for change of OASS PLP fluorescence upon addition of ligand: up to ~1 mM ligand
Experimental: Titrations of ligands with StOASS were examined by monitoring changes in the active site pyridoxal 5'phosphate (PLP) fluorescence of OASS using a Varian spectrofluorometer. The excitation and emission wavelengths for monitoring PLP signal change upon ligand binding were 412 nm and 507 nm respectively. All experiments were done at 23.0 ± 1°C. Slit widths were set to 5 nm for all experiments and PMT voltage was adjusted to get maximum signal for a given protein concentration. Initial readings of both the sample, Fsamp,0 and buffer, Fbuf,0 were taken, with F0 = Fsamp,0-Fbuf,0 defined as the initial fluorescence of the sample. The sample cuvette was then titrated with aliquots of ligands and mixed, equilibrated for 2-5 minutes before measurement. Data points from five such measurements were averaged to obtain Fave,i. The relative fluorescence quenching upon ligand binding is defined as Qobs,i = (F0-Fobs,i)/F0. All measurements were corrected for dilution, and inner filter effects.
Binding of ligands to OASS was analyzed to obtain the equilibrium binding constant, Kobs = [PL]/[P]*[L], using a single or two independent site binding models (eqn 1)(1) [drawing 1]
Where n, number of binding sites, Qobs, observed fluorescence quenching and Qmax, the maximum fluorescence quenching at saturation.

[6] = 25°C, 20 mM Tris pH 8.0, 50 mM NaCl

T1 sequence (P0A1E3 whole entry): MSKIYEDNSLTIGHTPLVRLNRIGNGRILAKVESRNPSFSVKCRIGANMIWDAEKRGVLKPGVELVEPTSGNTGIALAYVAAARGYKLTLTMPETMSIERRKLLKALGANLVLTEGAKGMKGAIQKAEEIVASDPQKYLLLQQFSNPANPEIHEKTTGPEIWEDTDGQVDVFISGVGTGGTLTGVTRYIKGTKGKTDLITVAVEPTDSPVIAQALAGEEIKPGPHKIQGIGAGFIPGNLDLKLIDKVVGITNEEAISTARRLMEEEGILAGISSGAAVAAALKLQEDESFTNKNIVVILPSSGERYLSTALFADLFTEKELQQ
HiOASS (O-acetylserine sulfhydrylase), sequence (P45040 whole entry): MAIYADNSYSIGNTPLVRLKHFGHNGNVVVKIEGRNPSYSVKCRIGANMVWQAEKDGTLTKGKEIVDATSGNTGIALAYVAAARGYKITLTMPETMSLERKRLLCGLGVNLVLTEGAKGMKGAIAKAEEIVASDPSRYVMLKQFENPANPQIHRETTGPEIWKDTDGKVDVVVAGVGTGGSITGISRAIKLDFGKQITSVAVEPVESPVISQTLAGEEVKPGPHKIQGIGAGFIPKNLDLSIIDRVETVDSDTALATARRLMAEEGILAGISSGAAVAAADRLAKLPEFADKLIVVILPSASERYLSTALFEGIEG

In the case of `CC(=O)OC[C@H](N)C(=O)O` [OAS, O-acetylserine], the Km (OASS (StOASS and HiOASS)) is given as 900 to 1400 µM, the Kd (OASS [1]) is given as ~5.6 mM and the Kd [2] is given as 0.56 mM. The “contribution of enthalpy to total binding free energy” value ([2]; 25°C) was “less than 3%”, the apparent binding constant [2, 6] was ~ 1.8 ± 0.6 × 10^3 M^-1 and the ΔG [2, 6] was -17.6 kJ/M. The Kd [3] was ~0.77 mM, the “contribution of enthalpy to total binding free energy” value ([3]; 25°C) was “less than 3%” and the binding constant [3, 6] was ~ 1.3 ± 0.4 × 10^3 M^-1. The enthalpy value [3, 6] was 0.45 ± 0.3 kJ/M and the ΔG [3, 6] was -16.9 kJ/M.

In the case of `N[C@@H](CO)C(=O)O` [L-serine], the Kd (OASS [4]) is given as 4.2 mM, the “change of OASS PLP fluorescence upon addition of ligand” value ([5]; pH 8.0 (20 mM Tris, 20 mM NaCl)) is given as “does not change OASS fluorescence; also recorded: does not change PLP” and the “change of OASS PLP fluorescence upon addition of ligand” value ([5]; pH 9.5 (20 mM Tris, 20 mM NaCl)) is given as “leads to changes in the OASS fluorescence; also recorded: increases the PLP fluorescence”. The Kd ([5]; pH 9.5, 20 mM Tris, 20 mM NaCl, read-out: Kd (equilibrium dissociation constant)) was ~3.7 mM.

From publication PMC3141655 (BMC Biochemistry, 2011)
